Experiments:
human TLR7 = molecular target: T1, human TLR7 (Homo sapiens, UniProt Q9NYK1); assay: HEK-Blue hTLR7 SEAP reporter gene agonist assay; format: cell-based; settings: HEK-Blue hTLR7 cells, 16 to 22 hours incubation
T1 construct: host or cells: HEK-Blue hTLR7 (HEK293-derived reporter cells)
T1 sequence (Q9NYK1 27-1049): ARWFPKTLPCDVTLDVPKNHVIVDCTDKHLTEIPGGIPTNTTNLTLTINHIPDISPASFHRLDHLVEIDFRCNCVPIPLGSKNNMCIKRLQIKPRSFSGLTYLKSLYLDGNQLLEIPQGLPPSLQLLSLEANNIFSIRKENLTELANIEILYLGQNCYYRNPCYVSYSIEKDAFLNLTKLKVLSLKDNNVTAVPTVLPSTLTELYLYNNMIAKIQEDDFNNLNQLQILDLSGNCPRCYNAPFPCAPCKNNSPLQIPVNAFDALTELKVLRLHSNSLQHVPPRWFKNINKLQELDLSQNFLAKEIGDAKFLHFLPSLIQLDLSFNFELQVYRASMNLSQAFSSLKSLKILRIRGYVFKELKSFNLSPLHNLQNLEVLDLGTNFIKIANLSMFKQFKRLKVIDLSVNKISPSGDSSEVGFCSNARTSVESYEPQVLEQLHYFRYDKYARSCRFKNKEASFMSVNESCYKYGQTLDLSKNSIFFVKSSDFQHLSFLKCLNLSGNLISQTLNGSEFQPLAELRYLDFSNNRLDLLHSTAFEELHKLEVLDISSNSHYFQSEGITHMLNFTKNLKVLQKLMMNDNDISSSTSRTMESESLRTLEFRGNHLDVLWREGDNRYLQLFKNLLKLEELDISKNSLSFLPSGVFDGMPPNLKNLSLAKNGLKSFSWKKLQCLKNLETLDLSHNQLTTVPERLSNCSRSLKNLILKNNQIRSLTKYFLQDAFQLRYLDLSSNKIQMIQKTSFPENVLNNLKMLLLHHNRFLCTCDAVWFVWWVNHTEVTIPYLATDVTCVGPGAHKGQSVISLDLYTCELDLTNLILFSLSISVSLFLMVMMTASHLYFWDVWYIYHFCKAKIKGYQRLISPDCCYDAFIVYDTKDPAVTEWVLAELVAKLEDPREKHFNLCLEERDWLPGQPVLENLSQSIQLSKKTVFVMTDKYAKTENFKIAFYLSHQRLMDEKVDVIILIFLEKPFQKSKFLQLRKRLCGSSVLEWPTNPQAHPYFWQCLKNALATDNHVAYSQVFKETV
Outline: (§1)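 HEK-Blue cells stably expressing human TLR7 or TLR8 carry a SEAP reporter driven by a minimal IFN-β promoter fused to 5×NF-κB and AP-1 sites. Compounds at […] final, 16 to 22 h. SEAP in the medium measured with Quanti-blue at OD650, and EC50 derived.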

human TLR8 = molecular target: T2, human TLR8 (Homo sapiens, UniProt Q9NR97); assay: HEK-Blue hTLR8 SEAP reporter gene agonist assay; format: cell-based; settings: HEK-Blue hTLR8 cells, 16 to 22 hours incubation
T2 construct: host or cells: HEK-Blue hTLR8 (HEK293-derived reporter cells)
T2 sequence (Q9NR97 27-1041): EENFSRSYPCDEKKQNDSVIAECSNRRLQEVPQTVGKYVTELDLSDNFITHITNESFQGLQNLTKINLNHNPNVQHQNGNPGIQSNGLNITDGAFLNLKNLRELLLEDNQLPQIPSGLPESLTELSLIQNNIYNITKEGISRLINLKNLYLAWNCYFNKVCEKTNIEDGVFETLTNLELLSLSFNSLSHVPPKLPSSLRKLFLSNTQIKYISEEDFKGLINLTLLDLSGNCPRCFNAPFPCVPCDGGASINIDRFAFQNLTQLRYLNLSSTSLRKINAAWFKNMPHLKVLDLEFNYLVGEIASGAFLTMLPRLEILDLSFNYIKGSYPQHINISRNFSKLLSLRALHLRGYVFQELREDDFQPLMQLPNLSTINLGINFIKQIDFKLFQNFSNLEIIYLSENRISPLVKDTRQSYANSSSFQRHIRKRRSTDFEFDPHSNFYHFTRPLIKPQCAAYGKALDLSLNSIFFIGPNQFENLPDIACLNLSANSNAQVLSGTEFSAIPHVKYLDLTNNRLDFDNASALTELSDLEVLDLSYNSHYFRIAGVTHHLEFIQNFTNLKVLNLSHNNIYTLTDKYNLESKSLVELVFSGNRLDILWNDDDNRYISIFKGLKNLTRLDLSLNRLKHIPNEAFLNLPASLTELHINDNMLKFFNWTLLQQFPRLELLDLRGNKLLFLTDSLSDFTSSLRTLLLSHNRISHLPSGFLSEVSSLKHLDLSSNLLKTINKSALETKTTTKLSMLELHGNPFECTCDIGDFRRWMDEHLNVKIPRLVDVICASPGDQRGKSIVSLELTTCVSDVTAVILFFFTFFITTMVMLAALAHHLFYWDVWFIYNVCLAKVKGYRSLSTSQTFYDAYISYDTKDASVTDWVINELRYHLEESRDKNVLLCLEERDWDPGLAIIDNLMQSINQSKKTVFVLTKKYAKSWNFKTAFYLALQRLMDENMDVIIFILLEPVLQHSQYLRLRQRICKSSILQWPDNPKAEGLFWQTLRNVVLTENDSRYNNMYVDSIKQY
Outline: as §1

SMILES | EC50 (human TLR7) [nM] | EC50 (human TLR8) [nM]
CCC[C@@H](CO)Nc1nc(N)nc2ccn(Cc3ccc(CN4CCN(CCCCCCN)CC4)cc3OC)c(=O)c12 [Compound I-217, (S)-2-amino-6-(4-((4-(6-aminohexyl)piperazin-1-yl)methyl)-2-methoxybenzyl)-4-((1-h hydroxypentan-2-yl)amino)pyrido[4,3-d]pyrimidin-5(6H)-one] | 100 | 35
CCC[C@@H](C)Nc1nc(N)nc2ccn(Cc3ccc(CN4CCN(CCN)CC4)cc3OC)c(=O)c12 [Compound I-213, (R)-2-amino-6-(4-((4-(2-aminoethyl)piperazin-1-yl)methyl)-2-methoxybenzyl)-4-(pentan-2-ylamino)pyrido[4,3-d]pyrimidin-5(6H)-one] | 100 | 9
CCCCNc1nc(N)nc2ccn(Cc3ccc(CCN(C)C)cc3)c(=O)c12 [Compound I-90, 2-amino-4-(butylamino)-6-(4-(2-(dimethylamino)ethyl)benzyl)pyrido[4,3-d]pyrimidin-5(6H)-one] | 68 | 47
CCCCNc1nc(N)nc2ccn(Cc3ccc(C(=O)N4CCN(CCO)CC4)cc3OC)c(=O)c12 [Compound I-120, 2-amino-4-(butylamino)-6-(4-(4-(2-hydroxyethyl)piperazine-1-carbonyl)-2-methoxybenzyl)pyrido[4,3-d]pyrimidin-5(6H)-one] | 46 | 53
CCC[C@@H](C)Nc1nc(N)nc2ccn(Cc3ccc(C(=O)N4CC5CC(C4)N5)cc3)c(=O)c12 [Compound I-151, 6-(4-(3,6-diazabicyclo[3.1.1]heptane-3-carbonyl)benzyl)-2-amino-4-(((R)-pentan-2-yl)amino)pyrido[4,3-d]pyrimidin-5(6H)-one] | 80 | 30
CCC[C@@H](CO)Nc1nc(N)nc2ccn(Cc3ccc(CN4CCCC4)cc3C)c(=O)c12 [Compound I-169, (S)-2-amino-4-((1-hydroxypentan-2-yl)amino)-6-(2-methyl-4-(pyrrolidin-1-ylmethyl)benzyl)pyrido[4,3-d]pyrimidin-5(6H)-one] | 70 | 20
CCC[C@@H](C)Nc1nc(N)nc2ccn(Cc3ccc(C(=O)N4CCNCC4)cc3OC)c(=O)c12 [Compound I-180, (R)-2-amino-6-(2-methoxy-4-(piperazine-1-carbonyl)benzyl)-4-(pentan-2-ylamino)pyrido[4,3-d]pyrimidin-5(6H)-one] | 38 | 12
CCC[C@@H](C)Nc1nc(N)nc2ccn(Cc3ccc(CNC)cc3OC)c(=O)c12 [Compound I-198, (R)-2-amino-6-(2-methoxy-4-((methylamino)methyl)benzyl)-4-(pentan-2-ylamino)pyrido[4,3-d]pyrimidin-5(6H)-one] | 100 | 5
CCC[C@@H](C)Nc1nc(N)nc2ccn(Cc3ccc(CN4CCCC4)cc3OC)c(=O)c12 [Compound I-154, (R)-2-amino-6-(2-methoxy-4-(pyrrolidin-1-ylmethyl)benzyl)-4-(pentan-2-ylamino)pyrido[4,3-d]pyrimidin-5(6H)-one] | 30 | 40
CCC[C@@H](C)Nc1nc(N)nc2ccn(Cc3ccc(C(=O)N4CC5CC(C4)N5)cc3OC)c(=O)c12 [Compound I-181, 6-(4-(3,6-diazabicyclo[3.1.1]heptane-3-carbonyl)-2-methoxybenzyl)-2-amino-4-(((R)-pentan-2-yl)amino)pyrido[4,3-d]pyrimidin-5(6H)-one] | 30 | 7
CCC[C@@H](C)Nc1nc(N)nc2ccn(Cc3ccc(C(=O)N4CCN(C(C)C)CC4)cc3OC)c(=O)c12 [Compound I-183, (R)-2-amino-6-(4-(4-isopropylpiperazine-1-carbonyl)-2-methoxybenzyl)-4-(pentan-2-ylamino)pyrido[4,3-d]pyrimidin-5(6H)-one] | 91 | 83

Reference: patent US20250059183A1, “PYRIDINE[4,3-D]PYRIMIDINE COMPOUND AS TLR7/8 AGONIST” (SHANGHAI VISONPHARMA CO., LTD., priority 2021, published 2025)
